{
  "source": "patent US6287813A",
  "about": "“Antibiotic-based gene regulation system” (Cistronics Cell Technology GmbH, priority 1999, dated 2001)",
  "molecular_target": "T1, Pip/PPTR (Streptomyces coelicolor, UniProt Q9ADN3)",
  "T1 construct": "gel retardation with ptr promoter DNA (PPTR) of S. pristinaespiralis",
  "T1 sequence (Q9ADN3 1-252)": "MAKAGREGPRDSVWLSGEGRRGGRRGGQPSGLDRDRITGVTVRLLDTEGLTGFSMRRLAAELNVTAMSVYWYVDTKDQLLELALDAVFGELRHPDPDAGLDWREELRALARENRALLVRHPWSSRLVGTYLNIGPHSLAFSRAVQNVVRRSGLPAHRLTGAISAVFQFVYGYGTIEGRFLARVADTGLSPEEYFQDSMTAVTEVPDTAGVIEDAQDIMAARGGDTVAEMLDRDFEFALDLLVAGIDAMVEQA",
  "test": "Gel retardation assay of Pip/PPTR interaction",
  "type": "binding",
  "conditions": "Pip 0.2 pmol titrated with 50 pmol to 0.01 pmol antibiotic",
  "text": "FIG. 1: Gel retardation assay showing Pip/PPTR interaction. PPTR of S. pristinaespiralis contains 3 dyad symmetrical binding sites (lane A; PPTR in the absence of Pip) all of which are saturated at relatively large amounts of purified Pip (0.4 pmol; […]) resulting in a single shifted band. Smaller amounts of Pip (0.02 pmol) presented an intermediate situation in which all possible permutations of site occupancy are represented in three distinct retarded bands (lane C). Pip (0.2 pmol lanes D-M) was titrated with a range of PI from 50 pmol to 0.01 pmol (lanes D-H; D: 50 pmol; E: 10 pmol; F: 1 pmol; G: 0.1 pmol; H: 0.01 pmol). […]\nChinese hamster ovary cells (CHO-K1, ATCC: CCL 61), Baby hamster kidney cells (BHK-21, ATCC: CRL-8544), and HeLa cells (ATCC: CRL-7923) as well as stable cell lines CHO-PIT1, CHO-PIT2, CHO-TWIN195, CHO-TWIN1108 and CHO-PIT1-SEAP were cultured as described before (Fussenegger et al., 1998, Nat. Biotechnol. 16,468-472) in the presence of appropriate antibiotics: G418 400 μg/ml; zeocin 100 μg/ml. […] Transient transfected cells were routinely analyzed after 48 h for GFP or SEAP expression using fluorescence microscopy and p-nitrophenolphosphate-based light absorbance timecourse, respectively, as described before (Fussenegger et al., 1998, Nat. Biotechnol. 16, 468-472; Berger et al., 1988, Gene 66, 1-10 b). […]",
  "data": [
    {"substance": "pristinamycin I [PI]", "values": [
      {"measurement": "Release of Pip from PPTR", "value": "completely released"}
    ]}
  ]
}
